Consider one molecule from patent publication US7732450B2, “Antifungal ketoconazole composition for topical use” (Boult Wade Tennant, priority 2000, dated 2010).

A short description of this data set: Solubility of ketoconazole in solvent media at room temperature. The settings on record: for Solubility: room temperature (21° C.). The class given is physicochemical. The protocol:
The solubility of ketoconazole in each of isopropyl alcohol, water and polyethoxylated glyceryl cocoate were established at room temperature (21° C.).
The solubility of ketoconazole in a composition of the present invention, prepared as in Example 1, containing 55% isopropyl alcohol, 35% water and 10% polyethoxylated glyceryl cocoate was also established at room temperature (21° C.).

Turning to `CC(=O)N1CCN(c2ccc(OCC3COC(Cn4ccnc4)(c4ccc(Cl)cc4Cl)O3)cc2)CC1` (centres unmarked) [ketoconazole, 1-acetyl-4-[4-[2-(2,4-dichlorophenyl)-2-imidazol-1-ylmethyl-1,3-dioxolan-4-ylmethoxy]phenyl]piperazine], the Solubility was found to be 2.8 wt % (in composition of 55% isopropyl alcohol, 35% water and 10% polyethoxylated glyceryl cocoate); 0.4722 wt % (in isopropyl alcohol); 0.8682 wt % (in polyethoxylated glyceryl cocoate); 0.0233 wt % (in water). Moreover, the “Solubility of ketoconazole in three-component solvent system” value (ternary solvent system (water, alcohol, non-ionic surface active agent)) is listed as “up to 3 wt %”.
